Reference: publication PMC5907308, “21st Brazilian Diabetes Society Congress” (Diabetology & Metabolic Syndrome, 2018)
Where two headings read alike, the source gives them in different places.

Columns and labels:
OVX female Swiss mice = format: in vivo, mouse
Experimental: (§1) Methods: Female Swiss mice with 80–100 days of life were OVX, after 2 weeks females in anestrous were distributed in the control groups (CTL): fed with normolipid diet and water containing 0.01% ethanol (vehicle); BPA control (CBPA): normolipid diet and water containing 0.01% ethanol and 1 μg/mL BPA; HFD: diet containing 36 g% fat and vehicle; and (HBPA): HFD and BPA. After 3 months, glucose tolerance test (GTT) and islet isolation for insulin secretion were performed (CEUA UFRJ-Macaé: MAC035 approval). Data were analyzed for the distribution of normality (Shapiro–Wilk), followed by analysis of variances: parametric (ANOVA followed by Newman–Keuls) or non-parametric (Kruskal–Wallis followed by Dunns; P < 0.05).

[1] = test system: islets isolated from OVX female Swiss mice; experiment: Glucose-stimulated insulin secretion of isolated islets; format: cell-based, mouse; conditions: 2.8 mM glucose; HFD islets 1.2 ± 0.14
Experimental: as §1

diabetic pregnant women = format: in vivo, human; conditions: 2009-2016, medical records
Experimental: Methods: We analyzed the medical records of the diabetic pregnant women who were attended at the Endocrinology Clinic of Hospital do Servidor Público Municipal between 2009 and 2016. The incidence of fetal macrosomia, prematurity, respiratory distress, hospitalization in intensive care unit and abortion were analyzed and correlated to the glycemic control. Good glycemic control was defined by the presence of at least 80% of capillary blood glucose within the following range: pre-prandial < 90 mg/dL, 1 h postprandial < 140 mg/dL, 2 h postprandial < 120 mg/dL

patient with glucagonoma = experiment: Case report: glucagonoma; format: in vivo, human; conditions: zinc vitamin supplement and Octreotide
Excerpt: Case report: patient four, hospitalized in 2015 for investigation of cholestatic syndrome associated with pancreatic mass of 51x48 mm evidenced on abdominal tomography (15/05/03). The patient underwent corpocaudal pancreatectomy and total splenectomy, with free surgical margins, but with angiolymphatic invasion. […] The patient received chemotherapy with gemcitabine which was replaced by Folfirinox. However, after 1 year without medical follow-up, they returned presenting weight loss, cutaneous disseminated lesions in the upper and lower limbs (Fig. 1), trunk and genitalia, angular cheilitis, macroglossia, deep venous thrombosis of the lower limbs and glycemia above 400 mg/dl. Figure 1: Cutaneous disseminated lesions It was used several antimicrobial regimens to treat skin lesions, unsuccessful, and performed biopsies of the skin, that diagnosis psoriasiform spongious dermatitis. The case was referred to the endocrinology departament and we did the diagnosis of glucagonoma, based on the symptoms and skin lesions, confirmed by pancreatic glucagon levels of 722 pg/ml (reference value < 208 pg/ml). […] We considered diagnosis hypothesis of adrenal insufficiency and after offered hydrocortisone, it was observed improvement in their condition in 24 h.

male Wistar rats = format: in vivo, rat
Experimental: In addition, experimental studies of effects of different doses are important in assessing the safety of a drug. The objective was to evaluate the lipid biomarkers in rats treated with several doses of prednisone. […] The treatment was daily for of 21 days, with weekly measures of body weight, food consumption and calories ingested on days 0, 8 and 16 of treatment. On the last day, the caloric gain was evaluated and then the rats were anesthetized and killed by decapitation to collect the whole blood for serum biochemical analyzes. All data were statistically evaluated with significance of 5%.

[2] = test system: patients submitted to liver transplantation; format: in vivo, human; conditions: Tacrolimus 95% CI 1.2–32.5, p = 0.029; PDN 95% CI 2.4–21, 8, p < 0.001
Excerpt: A total of 152 patients were included. […] Comparisons were done with Chi square tests and analysis of independent risk factors with multivariate logistic regression.

[3] = test system: Normoglycemic adult Wistar rats; conditions: for TOTG glycemia, 120 min: CONT 93.7 ± 4.1
Experimental: The side effects are primarily determined by dosage and time of use. The objective was to evaluate the effects of increasing doses of PRD on the action of endogenous insulin in Wistar rats. Normoglycemic adult rats weighing 450–510 g were divided into 5 groups, differentiated by their daily treatment (18 days) orally, as the PRD dose used [CONT, PRD1 (0.625 mg/kg), PDR2 (1.250 mg/kg), PRD3 (2.500 mg/kg) and PRD4 ([…])]. Rats received water and food ad libitum, and on 0, 8 and 16 days of treatment the fasting glycemia was measured. On the 17th day, the oral glucose tolerance test (TOTG) was performed, collecting blood for glucose levels at fasting times (− 1 min) and 30, 60 and 120 min after administration of glucose solution. […] The data were statistically analyzed with significance of 5%.

[4] = test system: male rats with mild diabetes (neonatal streptozotocin); format: in vivo, rat
Experimental: Background: The prednisone (PRD) is a glucocorticoid that may lead to the development of temporary hyperglycemia. […] The objective was to evaluate the effects of PRD in mild diabetic rats by biochemical and immunological biomarkers. […] The rats were separated into 4 groups: control (C), treated control C + PRD (oral treatment of 1.25 mg/kg/day PRD); diabetic DM (mild diabetes) and treated diabetic DM + PRD (mild diabetes, treatment with same dose as C + PRD group). Untreated groups received vehicle, adjusted volume according to body weight. The treatment daily for 21 days and it were weekly measured the body weight, food and water intake, and glycemia. In the 3rd week of treatment, the oral glucose tolerance test (OGTT) and insulin tolerance test (TTI) were performed, area under the glycemic curve (ASC) values were calculated. In the 21st day, the rats were killed and the blood was collected for serum biochemical, leukogram and immunoglobulin G determinations. All data was statistically evaluated with 5% significance.

[5] = test system: patients with long-standing T1DM; experiment: Mixed-meal tolerance test + oral 5 mg glibenclamide, ultrasensitive C-peptide; format: in vivo, human; conditions: 4 of 6 T1DM patients
Experimental: Fasting blood was taken for measurement of C-peptide (ELISA; Mercodia® (Uppsala, Sweden; cat.Nº10-1141-01). Thirty one patients (24,5%) had C-peptide > 10 pmol/L or 0.03 ng/ml. Six patients were randomly recruited to undergo a mixed-meal tolerance test + oral 5 mg glibenclamide.

patients with T2D = experiment: Network meta-analysis Gla-300 vs IDeg (inputs of the cost-effectiveness model); format: in vivo, human; conditions: estimated by network meta-analysis
Excerpt: Methods: This modelling analysis simulated a cohort representing patients in the EDITION 2 and 3 trials using the IMS Core Diabetes Model with a time horizon of 50 years (lifetime) for 1,000,000 patients starting at 62 years old. […] The treatment cost was $1,561 per SHE and $13.65 per NSHE (2015 $). Utilities to estimate quality-adjusted life years (QALYs) for multiple comorbidities were applied using the minimum utility approach. A disutility of -0.0118 was applied for SHE, and method of diminishing marginal disutility for NSHE.

participants with T1DM = experiment: Multiple-dosing crossover euglycemic glucose clamp study, steady-state PK/PD; format: in vivo, human
Excerpt: For both insulins, participants received 0.4 (n = 24) or 0.6 U/kg/day (n = 24) at ~ 8 am for 8 days. Main endpoint: within-day variability (fluctuation) of smoothed glucose infusion rate (GIR) over a 24-h dosing period (GIR-smFL0-24). […] This is an ENCORE abstract previously presented at ADA2017. Funding and editorial support provided by Sanofi (Fig. 1)

[6] = test system: adults with T2D using basal insulin; experiment: DELIVER2 real-world study, switch of basal insulin; format: in vivo, human; conditions: PS matched
Experimental: Methods: DELIVER2 used data from Predictive Health Intelligence Environment database of medical records representing 37 integrated delivery networks. […] The endpoints were A1C change from baseline, incidence and event rate of hypoglycemia (hypo) (identified by ICD-9/ICD-10 and/or plasma glucose level ≤ 70 mg/dL), and HCU (incidence and event rate of all-cause, diabetes-, and hypo-related visits) within 6 m.

[7] = test system: T2D pts aged ≥ 65 years on basal insulin; experiment: DELIVER 3 retrospective real-world study; format: in vivo, human
Experimental: Older patients (pts) with T2D are disproportionately impacted by treatment-related hypoglycemia and its adverse consequences. […] Pts had ≥ 12 months (mo) of baseline data and ≥ 6 mo of follow-up data. The effect of cohort on A1C reduction, hypoglycemia incidence/event rate, and achievement of A1C goal at 6 mo were assessed by generalized linear models or logistic regression models with adjustment for baseline characteristics. […] This is an ENCORE abstract previously presented at ADA2017. Funding and editorial support provided by Sanofi.

[8] = test system: T2DM pts uncontrolled on BOT with other BI; experiment: TOP-2 prospective observational study, 6 month interim analysis; format: in vivo, human
Experimental: Adult pts currently on a BOT with an indication for changing their insulin therapy due to non-achievement of glycemic targets (A1c 7.5–10.0%) are enrolled. Primary endpoint (EP) is the rate of pts achieving a fasting plasma glucose (FPG) ≤ 110 mg/dL after 6 and 12 months, respectively. Secondary EPs include change in A1c, FPG, body weight (BW) and insulin dose, hypoglycemia incidence and safety. Here we report on an interim analysis including all German pts, for whom 6 month results were available 15 months after study start (n = 661). […] Less pts experienced nocturnal hypoglycemia (0.5% vs 1.2%). […] Final results are expected for 2018 (Fig. 1)

[9] = 0.625 mg/kg daily orally (PRD1)
[10] = 1.250 mg/kg daily orally (PRD2)

CC(C)(c1ccc(O)cc1)c1ccc(O)cc1 [BPA, Bisphenol-A]
glycemia in GTT (OVX female Swiss mice; 15 min, HFD 444 ± 13): 427 ± 17 mg/dL | glycemia in GTT (OVX female Swiss mice; 30 min, HFD 453 ± 23): 450 ± 22 mg/dL | insulin secretion [1]: 1.8 ± 0.2 ng/islet h

CN(C)C(=N)N=C(N)N [D + PA + MTF, metformin]
pregnant women with adverse perinatal outcomes / women in group (diabetic pregnant women): 5/12

C[C@@H](O)[C@@H]1NC(=O)[C@H](CCCCN)NC(=O)[C@@H](Cc2c[nH]c3ccccc23)NC(=O)[C@H](Cc2ccccc2)NC(=O)[C@@H](NC(=O)[C@H](N)Cc2ccccc2)CSSC[C@@H](C(=O)N[C@H](CO)[C@@H](C)O)NC1=O [Octreotide]
skin lesions (necrolytic migratory erythema) (patient with glucagonoma): effective in reducing the number and extent of lesions

C[C@]12C=CC(=O)C=C1CC[C@@H]1[C@@H]2C(=O)C[C@@]2(C)[C@H]1CC[C@]2(O)C(=O)CO [prednisone]
calories ingested, 16th day of treatment (male Wistar rats; 5.0 mg/Kg daily (PRD2), n = 7): 93.2 ± 20.4 kcal/day | calories ingested, day 0 (male Wistar rats; 5.0 mg/Kg daily (PRD2), n = 7): 63.7 ± 12.3 kcal/day | calories ingested, day 8 of treatment (male Wistar rats; 5.0 mg/Kg daily (PRD2), n = 7): 69.0 ± 18.1 kcal/day | body weight, dietary intake, serum triglyceride, total cholesterol, VLDL, LDL, non-HDL cholesterol (male Wistar rats; 2.5 and 5.0 mg/Kg, 21 days, p > 0.05): no differences | independent risk factor for PTDM, OR [2]: 7.2 | TOTG glycemia, time -1 min ([3]; 0.625 mg/kg (PRD1), day 17, CONT 87.7 ± 5.7): 106 ± 5.8 mg/dL | TOTG glycemia, 120 min ([3]; 0.625 mg/kg (PRD1)): 122.8 ± 15.7 mg/dL | fasting glycemic increase compared to CONT, day 8 [3, 9]: 30% | fasting glycemic increase compared to CONT, day 16 [3, 9]: 20% | glycemia increase of PRD1 compared to PRD4, day 16 ([3]; 0.625 mg/kg vs PRD4): 16% | TOTG glycemia, 120 min ([3]; 1.250 mg/kg (PRD2)): 120.6 ± 11.6 mg/dL | fasting glycemic increase compared to CONT, day 8 [3, 10]: 27% | fasting glycemic increase compared to CONT, day 16 [3, 10]: 9% | ASCp, increased glycemic load vs CONT, interval 30–60 min ([3]; PRD4): 36% | glycemia increasing vs C group, all weeks of treatment ([4]; DM + PRD, 1.25 mg/kg/day): 51% | lymphocytes, increase vs C group ([4]; DM + PRD, day 21): 19% | neutrophils, increase vs C group ([4]; DM + PRD, day 21): 200% | total leukocytes, increase vs C group ([4]; DM + PRD, day 21): 30% | food intake increasing vs C group, 2nd and 3rd week ([4]; DM + PRD, oral 1.25 mg/kg/day): 18% | high-density lipoprotein, decrease vs C group ([4]; DM + PRD, serum): 8% | triglycerides, decrease vs C group ([4]; DM + PRD, serum): 21% | very low-density lipoproteins, decrease vs C group ([4]; DM + PRD, serum): 10% | OGTT glycemia, 30 min ([4]; DM + PRED group, 3rd week): 275 mg/dL | OGTT glycemia, 60 min ([4]; DM + PRED group, 3rd week): 258 mg/dL | OGTT glycemia, 120 min ([4]; DM + PRED group, 3rd week): 161 mg/dL | body weight decrease, all measures ([4]; DM and DM + PRD groups): about 27%

COc1ccc(Cl)cc1C(=O)NCCc1ccc(S(=O)(=O)NC(=O)NC2CCCCC2)cc1 [sulfonylurea, glibenclamide]
patients with positive response (C-peptide > 200 pmol/L) [5]: 66.7%

insulin glargine [Gla-300]
A1C reduction over 24 weeks (patients with T2D): 1.00% | Within-day GIR variability (GIR-smFL0-24), lower vs. Deg-100 (participants with T1DM; 0.4 U/kg/day once daily ~8 am for 8 days, steady state, n = 24, p = 0.047): 20% | Within-day GIR variability (GIR-smFL0-24) vs. Deg-100 (participants with T1DM; 0.6 U/kg/day, n = 24): comparable | A1C during 6 m follow-up [6]: 8.40% | Mean baseline A1C ([6]; 1827 pts per group): 8.95% | achieved A1C < 7.0%, OR vs. other basal insulins ([7]; 95% CI 0.581, 1.098, P = 0.166): 0.798 | achieved A1C < 8.0%, OR vs. other basal insulins ([7]; 95% CI 0.749, 1.248, P = 0.797): 0.967 | mean (± SD) A1c before switching ([8]; n = 661): 8.21 ± 0.8% | HbA1c, TOP-2 FAS 6 month [mean±SD] ([8]; six months after switching to Gla-300): 7.67 ± 1.0%
